Test results: ChEMBL document CHEMBL1131883, “Synthesis and evaluation of benzoxazinones as HIV-1 reverse transcriptase inhibitors. Analogs of Efavirenz (SUSTIVA)” (Bioorg Med Chem Lett, 1999)

Experiments:
[1] = molecular target: Human immunodeficiency virus type 1 reverse transcriptase (Human immunodeficiency virus 1, UniProt Q72547); assay: Inhibitory activity against HIV-1 reverse transcriptase
[2] = molecular target: Human immunodeficiency virus type 1 reverse transcriptase (Human immunodeficiency virus 1) (UniProt Q72547)

| SMILES | IC50 [1] | IC90 [2] |
| --- | --- | --- |
| CCCC#CC1(C(F)(F)F)OC(=O)Nc2ccc(N)cc21 (stereo not given) | 1510 nM | 33.5 nM |
| CCCC#CC1(C(F)(F)F)OC(=O)Nc2ccc([N+](=O)[O-])cc21 (stereo not given) | 304 nM | 4.57 nM |
| CCCC#CC1(C(F)(F)F)OC(=O)Nc2cccc(F)c21 (stereo not given) | 156 nM | 5.64 nM |
| CC(=O)Nc1ccc2c(c1)C(C#CC(C)C)(C(F)(F)F)OC(=O)N2 (stereo not given) | > 2000 nM | 500 nM |
| CNc1ccc2c(c1)C(C#CC(C)C)(C(F)(F)F)OC(=O)N2 (stereo not given) | 473 nM | 10.2 nM |
| O=C1Nc2cccc(F)c2C(C#CC2CC2)(C(F)(F)F)O1 (stereo not given) | 78 nM | 4.34 nM |
| CCC#CC1(C(F)(F)F)OC(=O)Nc2cccc(F)c21 (stereo not given) | 127 nM | 4.18 nM |
| CCC#CC1(C(F)(F)F)OC(=O)Nc2ccc(N)cc21 (stereo not given) | 1890 nM | 45.7 nM |
| CNc1ccc2c(c1)C(C#CC1CC1)(C(F)(F)F)OC(=O)N2 (stereo not given) | 608 nM | 9.02 nM |
| O=C1Nc2ccc([N+](=O)[O-])cc2C(C#CC2CC2)(C(F)(F)F)O1 (stereo not given) | 209 nM | 0.83 nM |
| Nc1ccc2c(c1)C(C#CC1CC1)(C(F)(F)F)OC(=O)N2 (stereo not given) | 802 nM | 20.6 nM |
| CC(C)C#CC1(C(F)(F)F)OC(=O)Nc2ccc(N)cc21 (stereo not given) | 896 nM | 27.5 nM |
| CCC#CC1(C(F)(F)F)OC(=O)Nc2ccc([N+](=O)[O-])cc21 (stereo not given) | 276 nM | 2.23 nM |
| CC(C)C#CC1(C(F)(F)F)OC(=O)Nc2ccc([N+](=O)[O-])cc21 (stereo not given) | 199 nM | 3.35 nM |
| CC(=O)Nc1ccc2c(c1)C(C#CC1CC1)(C(F)(F)F)OC(=O)N2 (stereo not given) | > 2000 nM | 296 nM |
